Assay results published in the NIST ThermoML archive (doi:10.1016/j.jct.2012.05.008).
± gives the expanded uncertainty stated by the source.

Test: xn = mol fraction of the nth substance listed
Conditions: Liquid, Vibrating tube method, x2 = 0.3333

NC(N)=O [urea] + C[N+](C)(C)CCO.[Cl-]
mass density [kg/m3]
Conditions	298.15 K	303.15 K	308.15 K	313.15 K	318.15 K	323.15 K
100 kPa	1197.9 ± 2.7	1195.1 ± 2.7	1192.2 ± 2.6	1189.3 ± 2.6	1186.4 ± 2.6	1183.5 ± 2.6
5000 kPa	1199.3 ± 2.7	1196.4 ± 2.7	1193.6 ± 2.7	1190.7 ± 2.7	1187.8 ± 2.6	1184.9 ± 2.6
10000 kPa	1200.6 ± 2.7	1197.9 ± 2.7	1194.9 ± 2.7	1192 ± 2.7	1189.2 ± 2.7	1186.3 ± 2.7
15000 kPa	1201.9 ± 2.7	1199.1 ± 2.7	1196.3 ± 2.7	1193.4 ± 2.7	1190.5 ± 2.7	1187.6 ± 2.7
20000 kPa	1203.3 ± 2.7	1200.4 ± 2.7	1197.6 ± 2.7	1194.7 ± 2.7	1191.9 ± 2.7	1189 ± 2.7
25000 kPa	1204.6 ± 2.8	1201.8 ± 2.8	1198.9 ± 2.7	1196.1 ± 2.7	1193.2 ± 2.7	1190.4 ± 2.7
30000 kPa	1205.9 ± 2.8	1203.1 ± 2.8	1200.3 ± 2.8	1197.4 ± 2.8	1194.6 ± 2.7	1191.6 ± 2.7
35000 kPa	1207.1 ± 2.8	1204.4 ± 2.8	1201.5 ± 2.8	1198.7 ± 2.8	1195.8 ± 2.8	1193 ± 2.8
40000 kPa	1208.3 ± 2.8	1205.6 ± 2.8	1202.8 ± 2.8	1200 ± 2.8	1197.1 ± 2.8	1194.2 ± 2.8
45000 kPa	1209.5 ± 2.9	1206.8 ± 2.8	1204 ± 2.8	1201.2 ± 2.8	1198.3 ± 2.8	1195.5 ± 2.8
50000 kPa	1210.7 ± 2.9	1208 ± 2.9	1205.1 ± 2.9	1202.3 ± 2.8	1199.5 ± 2.8	1196.7 ± 2.8
